Laboratory results published in patent US6833456B2, “Indolyl-urea derivatives of thienopyridines useful as antiangiogenic agents, and methods for their use” (Agouron Pharmaceuticals, Inc., priority 2002, dated 2004).

Legend:
[1] = tested on: human umbilical vein endothelial cells (HUVEC); test: HUVEC+VEGF proliferation assay; type: cell-based; details: VEGF 6 ng/mL, MTT
Experimental: This assay determines the ability of a test compound to inhibit the growth factor-stimulated proliferation of human umbilical vein endothelial cells (“HUVEC”). HUVEC cells (passage 3-4, Clonetics, Corp.) were thawed into EGM2 culture medium (Clonetics Corp) in T75 flasks. Fresh EGM2 medium was added to the flasks 24 hours later. Four or five days later, cells were exposed to another culture medium (F12K medium supplemented with 10% fetal bovine serum (FBS), 60 μg/mL endothelial cell growth supplement (ECGS), and 0.1 mg/mL heparin). Exponentially-growing HUVEC cells were used in experiments thereafter. Ten to twelve thousand HUVEC cells were plated in 96-well dishes in 100 μl of rich, culture medium (described above). The cells were allowed to attach for 24 hours in this medium. The medium was then removed by aspiration and 105 μl of starvation media (F12K+1% FBS) was added to each well. After 24 hours, 15 μl of test agent dissolved in 1% DMSO in starvation medium or this vehicle alone was added into each treatment well; the final DMSO concentration was 0.1%. One hour later, 30 μl of VEGF (30 ng/mL) in starvation media was added to all wells except those containing untreated controls; the final VEGF concentration was 6 ng/mL. Cellular proliferation was quantified 72 hours later by MTT dye reduction, at which time cells were exposed for 4 hours MTT (Promega Corp.). Dye reduction was stopped by addition of a stop solution (Promega Corp.) and absorbance at 595 nm was determined on a 96-well spectrophotometer plate reader.

Mouse PK assay = type: in vivo, B6 female mice; details: for AUC / Cmax: female, B6, mouse, plasma; for Mouse Cmin, po / AUC / Cmax: po; for Cmax: read-out: Mouse Cmax, po ng-h/mL
Experimental: The pharmacokinetics (e.g., absorption and elimination) of drugs in mice were analyzed using the following experiment. Test compounds were formulated as a suspension in a 30:70 (PEG 400: acidified H2O) vehicle. This solution was administered orally (p.o.) and intraperitoneally (i.p.) at 50 mg/kg to two distinct groups (n=4) of B6 female mice. Blood samples were collected via an orbital bleed at time points: 0 hour (pre-dose), 0.5 hr, 1.0 hr, 2.0 hr, and 4.0 hr post dose. Plasma was obtained from each sample by centrifugation at 2500 rpm for 5 min. Test compound was extracted from the plasma by an organic protein precipitation method. For each time bleed, 50 μL of plasma was combined with 1.0 mL of acetonitrile, vortexed for 2 min. and then spun at 4000 rpm for 15 min. to precipitate the protein and extract out the test compound. Next, the acetonitrile supernatant (the extract containing test compound) was poured into new test tubes and evaporated on a hot plate (25° C.) under a steam of N2 gas. To each tube containing the dried test compound extract, 125 μL of mobile phase (60:40, 0.025 M NH4H2PO4+2.5 mL/L TEA:acetonitrile) was added. The test compound was resuspended in the mobile phase by vortexing and more protein was removed by centrifugation at 4000 rpm for 5 min. Each sample was poured into an HPLC vial for test compound analysis on an Hewlett Packard 1100 series HPLC with UV detection. From each sample, 95 μL was injected onto a Phenomenex-Prodigy reverse phase C-18, 150×3.2 mm column and eluted with a 45-50% acetonitrile gradient run over 10 min. Test-compound plasma concentrations (μg/mL) were determined by a comparison to standard curve (peak area vs. conc. μg/mL) using known concentrations of test compound extracted from plasma samples in the manner described above. Along with the standards and unknowns, three groups (n=4) of quality controls (0.25 μg/mL, 1.5 μg/mL, and 7.5 μg/mL) were run to insure the consistency of the analysis. […] The quantitated test samples were plotted for visual display using Kaleidagraph software and their pharmacokinetic parameters were determined using WIN NONLIN software.

[2] = target: T1, unphosphorylated VEGF-R2Δ50 (FLVK) (Homo sapiens, UniProt P35968, DEL940-989/E990V); test: VEGF-R2 coupled spectrophotometric assay, unphosphorylated construct (FLVK); type: biochemical
T1 construct: VEGF-R2Δ50 contains residues 806-939 and 990-1171; made in house; host or cells: baculovirus/insect cell system
Outline: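 Continuous coupled assay (PEP, PK, LDH; NADH loss at 340 nm) in 200 mM HEPES pH 7.5 with 3 mM ATP, 20 mM poly(E4Y1), 60 mM MgCl2 plus 2 mM MnCl2, started with 5-40 nM non-autophosphorylated VEGF-R2Δ50. Ki values from activity across compound concentrations, Morrison fit.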

PDGFRβ = target: T2, PDGFRβ (Homo sapiens, UniProt P09619); test: PAE-PDGFRβ phosphorylation in PAE-PDGFRB cells assay; type: cell-based; details: PAE cells overexpressing human PDGFRβ, PDGF-BB stimulated; read-out: PAE PDGFR autophos IC50
T2 construct: expressed in transfected cells; host or cells: porcine aorta endothelial (PAE) cells
Experimental: This assay determines the ability of a test compound to inhibit the autophosphorylation of PDGFRβ in porcine aorta endothelial (PAE)-PDGFRβ cells. PAE cells that overexpress human PDGFRβ were used in this assay. The cells were cultured in Ham's F12 media supplemented with 10% fetal bovine serum (FBS) and 400 ug/ml G418. Twenty thousands cells were seeded in each well of a 96-well plate in 50 μL of growth media and allowed to attach for 6 hours at 37° C. Cells were then exposed to the starvation media (Ham's F12 media supplemented with 0.1% FBS) for 16 hours. After the starvation period was over, 10 μL of test agent in 5% DMSO in starvation media were added to the test wells and 10 μL of the vehicle (5% DMSO in starvation media) were added into the control wells. The final DMSO concentration in each well was 0.5%. Plates were incubated at 37° C. for 1 hour and the cells were then stimulated with 1 μg/mL PDGF-BB (R & D System) in the presence of 2 mM Na3VO4 for 8 minutes. The cells were washed once with 1 mm Na3VO4 in HBSS and lysed by adding 50 μL per well of lysis buffer. One hundred μL of dilution buffer were then added to each well and the diluted cell lysate was transferred to a 96-well goat ant-rabbit coated plate (Pierce), which was pre-coated with Rabbit anti Human PDGFRβ antibody (Santa Cruz). The plates were incubated at room temperature for 2 hours and washed seven times with 1% Tween 20 in PBS. HRP-PY20 (Santa Cruz) was diluted and added to the plate for a 30-minute incubation. Plates were then washed again and TMB peroxidase substrate (Kirkegaard & Perry) was added for a 10-minute incubation. One hundred μL of 0.09 N H2SO4 was added into each well of the 96-well plate to stop the reaction. Phosphorylation status was assessed by spectrophotometer reading at 450 nm. IC50 values were calculated by curve fitting using a four-parameter analysis.

T1 sequence (P35968 with tags, fused parts or gaps DEL940-989/E990V limits assumed): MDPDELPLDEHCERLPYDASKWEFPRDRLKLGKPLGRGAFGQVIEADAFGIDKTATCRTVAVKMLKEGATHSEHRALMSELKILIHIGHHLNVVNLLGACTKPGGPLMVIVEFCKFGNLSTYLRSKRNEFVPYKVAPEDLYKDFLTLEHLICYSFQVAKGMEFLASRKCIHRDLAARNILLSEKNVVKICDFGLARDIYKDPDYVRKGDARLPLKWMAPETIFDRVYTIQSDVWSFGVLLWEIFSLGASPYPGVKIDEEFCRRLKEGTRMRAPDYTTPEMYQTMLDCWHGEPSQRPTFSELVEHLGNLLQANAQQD
T2 sequence (P09619 33-1106): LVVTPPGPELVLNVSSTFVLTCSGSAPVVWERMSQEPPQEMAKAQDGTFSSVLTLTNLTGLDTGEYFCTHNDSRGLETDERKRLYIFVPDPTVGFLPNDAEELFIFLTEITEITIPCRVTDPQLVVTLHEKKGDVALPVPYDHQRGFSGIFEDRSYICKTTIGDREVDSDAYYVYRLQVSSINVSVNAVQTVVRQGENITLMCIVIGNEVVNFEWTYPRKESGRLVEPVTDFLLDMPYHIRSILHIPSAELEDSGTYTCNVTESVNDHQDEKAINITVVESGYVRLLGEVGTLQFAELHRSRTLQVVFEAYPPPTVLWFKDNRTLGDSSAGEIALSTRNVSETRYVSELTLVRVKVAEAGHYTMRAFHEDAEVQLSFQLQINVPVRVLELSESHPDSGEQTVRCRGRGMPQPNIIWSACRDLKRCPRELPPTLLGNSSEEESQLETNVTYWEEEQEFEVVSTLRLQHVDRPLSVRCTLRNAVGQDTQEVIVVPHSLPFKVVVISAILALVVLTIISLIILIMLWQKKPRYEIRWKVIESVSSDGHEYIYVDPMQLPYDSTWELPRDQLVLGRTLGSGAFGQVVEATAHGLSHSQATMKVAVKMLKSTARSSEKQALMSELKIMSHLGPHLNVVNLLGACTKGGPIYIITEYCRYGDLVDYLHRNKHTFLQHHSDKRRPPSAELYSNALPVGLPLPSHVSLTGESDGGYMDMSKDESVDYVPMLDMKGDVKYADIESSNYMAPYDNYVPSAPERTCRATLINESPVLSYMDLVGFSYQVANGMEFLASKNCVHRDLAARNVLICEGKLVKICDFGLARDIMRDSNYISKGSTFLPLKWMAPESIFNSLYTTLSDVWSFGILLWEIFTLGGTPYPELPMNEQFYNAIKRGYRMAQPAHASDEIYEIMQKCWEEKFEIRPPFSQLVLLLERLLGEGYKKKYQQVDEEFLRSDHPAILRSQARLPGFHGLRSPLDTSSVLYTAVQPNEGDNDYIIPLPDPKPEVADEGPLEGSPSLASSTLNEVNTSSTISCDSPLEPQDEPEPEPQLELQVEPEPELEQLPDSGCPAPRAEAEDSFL

Row | Compound | Mouse PK AUC, po ng-h/mL (Mouse PK assay; p.o., 50 mg/kg) [ng·h/mL] | Mouse Cmin, po (Mouse PK assay) [ng/mL] | Ki [2] [nM] | FLVK (% @ 50 (nM)) ([2]; percent inhibition at 50 nM) [%] | IC50 (PDGFRβ) [nM] | AUC (Mouse PK assay; 50 mg/kg) [ng·h/mL] | Cmax (Mouse PK assay; 50 mg/kg, p.o., 50 mg/kg) [ng/mL] | inhibition at 0.05 µM ([2]; percent inhibition at 50 nM) [%] | IC50 ([1]; 72 hours) [nM] | IC50 ([1]; Homo sapiens, HUVEC, 72 h) [nM]
1 | C#CCNC(=O)n1c(C)cc2c(F)c(Oc3ccnc4cc(C(=O)N5CCC[C@H]5COC)sc34)ccc21 [Example 5c, 4-Fluoro-5-[2-(2S-methoxymethyl-pyrrolidine-1-carbonyl)-thieno[3,2-b]pyridin-7-yloxy]-2-methyl-indole-1-carboxylic acid prop-2-ynylamide] |  |  | 0.605 |  | 7.7 | 36200 | 19700 | 99 |  | 0.115
2 | C#CCNC(=O)n1c(C)cc2c(F)c(Oc3ccnc4cc(C(=O)N5CC[C@H](OC)C5)sc34)ccc21 [Example 5g, 4-Fluoro-5-[2-(3S-methoxy-pyrrolidine-1-carbonyl)-thieno[3,2-b]pyridin-7-yloxy]-2-methyl-indole-1-carboxylic acid prop-2-ynylamide] |  | 65 | 0.45 |  | 11.2 | 1170 | 321 | 99 |  | 0.15
3 | CCCNC(=O)n1c(C)cc2cc(Oc3ccnc4cc(C(=O)N5CC[C@@H](N(C)C)C5)sc34)ccc21 [Example 8h, 5-[(2-{[(3R)-3-(Dimethylamino)pyrrolidin-1-yl]carbonyl}thieno[3,2-b]pyridin-7-yl)oxy]-2-methyl-N-propyl-1H-indole-1-carboxamide] |  | 204 | 0.301 |  | 19 | 2390 | 920 | 99 |  | 0.16

Now those with a lower Ki [2], led by results:

Row | Mouse PK AUC, po ng-h/mL (Mouse PK assay; p.o., 50 mg/kg) [ng·h/mL] | Mouse Cmin, po (Mouse PK assay) [ng/mL] | Ki [2] [nM] | FLVK (% @ 50 (nM)) ([2]; percent inhibition at 50 nM) [%] | IC50 (PDGFRβ) [nM] | AUC (Mouse PK assay; 50 mg/kg) [ng·h/mL] | Cmax (Mouse PK assay; 50 mg/kg, p.o., 50 mg/kg) [ng/mL] | inhibition at 0.05 µM ([2]; percent inhibition at 50 nM) [%] | Compound | IC50 ([1]; 72 hours) [nM] | IC50 ([1]; Homo sapiens, HUVEC, 72 h) [nM]
4 | 1837 | 4 | 0.21 | 97 | 175 |  |  |  | CO[C@H]1CCN(C(=O)c2cc3nccc(Nc4ccc5c(c4)cc(C)n5C(=O)NC4CC4)c3s2)C1 [Example 1f, 5-[2-(3S-Methoxy-pyrrolidine-1-carbonyl)-thieno[3,2-b]pyridin-7-ylamino]-2-methyl-indole-1-carboxylic acid cyclopropylamide] | 0.68 | 
5 |  | 0 | 0.17 |  | > 1000 | 6 | 5 | 99 | Cc1cc2cc(Nc3ccnc4cc(C(=O)N5CC[C@@H](O)C5)sc34)ccc2n1C(=O)NC1CC1 [Example 1q, 5-[2-(3R-Hydroxy-pyrrolidine-1-carbonyl)-thieno[3,2-b]pyridin-7-ylamino]-2-methyl-indole-1-carboxylic acid cyclopropylamide] |  | 0.481
